According to patent US9023853B2, “Janus kinase 2 (JAK2) inhibitor for the treatment of lupus” (Cephalon, Inc., priority 2010, dated 2015):
“Also recorded” adds a separate entry of the source.

Experiments:
[1] = test system: NZM mice; experiment: Renal histopathology kidney IC-GN scoring in NZM mice; format: in vivo, mouse; conditions: for D: Glomerular Sclerosis / E: Interstitial Infiltration / G: Interstitial Fibrosis / B: Glomerular Cellularity / C: Glomerular Necrosis / F: Tubular Atrophy / H: Vasculitis: NZM individual mouse; for Glomerular Cellularity / Glomerular Necrosis / Glomerulosclerosis / Interstitial Fibrosis / Interstitial Infiltration / Tubular Atrophy / Vasculitis: NZM kidney score (grade 0-5), mean; for glomerular cellularity decrease compared to vehicle: p<0.001
Description: For histological analyses, the left kidney and lung (NZM model only) from each animal was removed and fixed in 10% buffered neutral 10% formalin (EMD) for 48 hours on an orbital rocker at 25° C., then washed overnight with running dH2O and stored in 70% ethanol at 4° C. until ready to be processed. Kidney stains used for histological analyses included hematoxylin and eosin (H&E), Periodic Acid Schiff (PAS) and Trichrome stains (Wistar Institute, Philadelphia, Pa.). All 3 stained sections were used by the pathologist for scoring purposes. All histological scoring was performed blinded and by an independent board certified veterinary medical pathologist (Julie Engiles, VMD, DACVP; University of Pennsylvania). Multiple stains were used to determine score values. Images in FIGS. 8, 19 and 20 show worst affected area of section selected blindly by the pathologist.
Kidney IC-GN Scoring Method (Smith, Dong et al. 2007):
1. […]
2. […]
3. […]
4. […]
5. […]
6. […]
7. […]
Also considered effacement of the glomerular tuft by PAS positive, Trichrome negative material necrosis. • Glomerular sclerosis was defined by increased fibroplasia or fibrosis within the glomerular tuft or capsule. […] Pharmacodynamic (PD) Analysis
Age mated, female, NZM or NZW/LacJ, mice were matured for the study of lupus nephritis for a total of 7 months or 210 days at which time urine was collected for proteinuria detection. Mice with 0.5-1.0 mg/ml of urine protein as determined by an optical density-based total protein precipitation assay and cross-checked for 30-300 mg/dl of protein as determined by a stick assay were considered proteinuria positive and selected for study entry. Groups were normalized to contain a Gaussian distribution of proteinuria positive animals (i.e., ⅓ low proteinuria, ⅓ medium, ⅓ high) then randomized between groups before ear marking and taking baseline measures including urine and serum collections. A total of five mice from the total population were randomly selected for baseline kidney histology evaluation. Treatments and tests for each group are as described in FIG. 12. Briefly, with a minimum of 10 mice per group, COMPOUND A was administered at 100 mg/kg or 55 mg/kg, both twice a day and orally. […] Vehicle included 3% DMSO, 10% Solutol and 87% PBS. […] End-stage lupus nephritis was evaluated by histopathology and scored by a board certified pathologist for the assessment of total renal damage in diseased animals using the scoring method described by Smith et al (Smith, Dong et al. 2007). […] Day-98 or “end of treatment/study” represents 310 days of age for the NZM animals.

[2] = test system: MRL/lpr mice; experiment: Renal histopathology kidney IC-GN scoring in MRL/lpr mice; format: in vivo, mouse; conditions: for Glomerular Cellularity / Glomerular Necrosis / Glomerulosclerosis / Interstitial Fibrosis / Interstitial Inflitration / Tubular Atrophy / Vasculitis: MRL/lpr kidney score (grade 0-5), mean
Description: Kidney stains used for histological analyses included hematoxylin and eosin (H&E), Periodic Acid Schiff (PAS) and Trichrome stains (Wistar Institute, Philadelphia, Pa.). All 3 stained sections were used by the pathologist for scoring purposes. All histological scoring was performed blinded and by an independent board certified veterinary medical pathologist (Julie […]; University of Pennsylvania). Multiple stains were used to determine score values. Images in FIGS. 8, 19 and 20 show worst affected area of section selected blindly by the pathologist. Kidney IC-GN Scoring Method (Smith, Dong et al. 2007): 1. Glomerular cellularity-Score 1-5: Null, low, moderate, high, severe […] Glomerular necrosis-Score 1-5: Null, low, moderate, high, severe […] Glomerulosclerosis-Score 1-5: Null, low, moderate, high, severe […] Null, low, moderate, high, severe 5. […] Null, low, moderate, high, severe 6. […] Null, low, moderate, high, severe 7. […] Null, low, moderate, high, severe Specific Pathologist Definitions: • Necrosis was defined by the presence of nuclear debris/pyknosis within the glomerular tuft indicative of “necrosis.” In many samples, this was a very mild, rare finding within only a very few segments of the glomerular tuft. Also considered effacement of the glomerular tuft by PAS positive, Trichrome negative material necrosis. • Glomerular sclerosis was defined by increased fibroplasia or fibrosis within the glomerular tuft or capsule. […] Most of the vascular changes were mild and could be considered “arteriosclerosis” characterized by proliferation of the smooth muscle cells, and hyalinization of the extracellular matrix. This change may reflect hypertension secondary to glomerular pathology. In very few animals was there overt “vasculitis.” Most inflammatory changes were within the walls of the blood vessels, with little to no damage to the endothelium, and no overt hemorrhage/fibrin leakage. Many also have perivascular rims of fibroblasts. […] Mice were tracked on an individual basis.

[3] = NZM mice, sentence names 55 mg/kg and 100 mg/kg doses, p<0.05
[4] = MRL/lpr mice, 100 mg/kg, p<0.01

In the case of `CN1CCN(c2cccc(Nc3nc4c(-c5ccc(S(C)(=O)=O)cc5)cccn4n3)c2)CC1` [COMPOUND A, [8-(4-methanesulfonyl-phenyl)-[1,2,4]triazolo[1,5-a]pyridin-2-yl]-[3-(4-methyl-piperazin-1-yl)-phenyl]-amine], the “D: Glomerular Sclerosis” value ([1]; CMPD A 55 mpk bid) is reported as “− (‘−’ no disease (1))”, the “E: Interstitial Infiltration” value ([1]; CMPD A 55 mpk bid) is reported as “− (‘−’ no disease (1))” and the “G: Interstitial Fibrosis” value ([1]; CMPD A 55 mpk bid) is reported as “− (‘−’ no disease (1))”. For the same compound, the “B: Glomerular Cellularity” value ([1]; CMPD A 55 mpk bid, 55 mg/kg) was “+ (‘+’ mild (2)); also recorded: − (‘−’ no disease (1))”, the “C: Glomerular Necrosis” value ([1]; CMPD A 55 mpk bid, 55 mg/kg) was “− (‘−’ no disease (1)); also recorded: + (‘+’ mild (2))” and the “F: Tubular Atrophy” value ([1]; CMPD A 55 mpk bid, 55 mg/kg) was “+ (‘+’ mild (2)); also recorded: − (‘−’ no disease (1))”. For the same compound, the “H: Vasculitis” value ([1]; CMPD A 55 mpk bid, 55 mg/kg) was “− (‘−’ no disease (1)); also recorded: + (‘+’ mild (2))”, the “B: Glomerular Cellularity” value ([1]; CMPD A 100 mpk bid, 100 mg/kg) was “− (‘−’ no disease (1)); also recorded: + (‘+’ mild (2))” and the “C: Glomerular Necrosis” value ([1]; CMPD A 100 mpk bid, 100 mg/kg) was “− (‘−’ no disease (1)); also recorded: + (‘+’ mild (2)); also recorded: ++ (‘++’ moderate (3))”. For the same compound, the “D: Glomerular Sclerosis” value ([1]; CMPD A 100 mpk bid, 100 mg/kg) was “− (‘−’ no disease (1)); also recorded: ++ (‘++’ moderate (3))”, the “E: Interstitial Infiltration” value ([1]; CMPD A 100 mpk bid, 100 mg/kg) was “− (‘−’ no disease (1)); also recorded: + (‘+’ mild (2))” and the “F: Tubular Atrophy” value ([1]; CMPD A 100 mpk bid, 100 mg/kg) was “− (‘−’ no disease (1)); also recorded: + (‘+’ mild (2))”. For the same compound, the “G: Interstitial Fibrosis” value ([1]; CMPD A 100 mpk bid, 100 mg/kg) was “− (‘−’ no disease (1)); also recorded: + (‘+’ mild (2))”, the “H: Vasculitis” value ([1]; CMPD A 100 mpk bid, 100 mg/kg) was “− (‘−’ no disease (1)); also recorded: + (‘+’ mild (2))” and the “Glomerular Cellularity” value ([1]; COMPOUND A 55 mg/kg) was 1.33. The “Glomerular Necrosis” value ([1]; COMPOUND A 55 mg/kg) was 1.22, the Glomerulosclerosis ([1]; COMPOUND A 55 mg/kg) was 1.00 and the “Interstitial Fibrosis” value ([1]; COMPOUND A 55 mg/kg) was 1.0. The “Interstitial Infiltration” value ([1]; COMPOUND A 55 mg/kg) was 1.11, the “Tubular Atrophy” value ([1]; COMPOUND A 55 mg/kg) was 1.22 and the Vasculitis ([1]; COMPOUND A 55 mg/kg) was 1.11. The “Glomerular Cellularity” value ([1]; COMPOUND A 100 mg/kg) was 1.44, the “Glomerular Necrosis” value ([1]; COMPOUND A 100 mg/kg) was 1.44 and the Glomerulosclerosis ([1]; COMPOUND A 100 mg/kg) was 1.22. For the same compound, the “Interstitial Fibrosis” value ([1]; COMPOUND A 100 mg/kg) was 1.22, the “Interstitial Infiltration” value ([1]; COMPOUND A 100 mg/kg) was 1.22 and the “Tubular Atrophy” value ([1]; COMPOUND A 100 mg/kg) was 1.33. For the same compound, the Vasculitis ([1]; COMPOUND A 100 mg/kg) was 1.44, the “enlarged glomeruli and leukocytic infiltrates in renal sections” value ([1]; NZM mice treated with COMPOUND A, FIG. 19) was “absent” and the “glomerular cellularity decrease compared to vehicle” value ([1]; NZM mice, COMPOUND A 55 mg/kg) was 59.3%. For the same compound, the “glomerular cellularity decrease compared to vehicle” value ([1]; NZM mice, COMPOUND A 100 mg/kg) was 56.2%, the renal pathologies ([1]; NZM mice, comparable to non-diseased NZW/LacJ age-matched control, FIG. 19) was “decreased renal pathologies” and the “interstitial fibrosis decrease compared to vehicle” value [1, 3] was 58.3%. The “vasculitis decrease compared to vehicle” value [1, 3] was 8.3%, the “Glomerular Cellularity” value ([2]; COMPOUND A 30 mg/kg) was 2.60 and the “Glomerular Necrosis” value ([2]; COMPOUND A 30 mg/kg) was 1.80. For the same compound, the Glomerulosclerosis ([2]; COMPOUND A 30 mg/kg) was 1.60, the “Interstitial Fibrosis” value ([2]; COMPOUND A 30 mg/kg) was 1.60 and the “Interstitial Inflitration” value ([2]; COMPOUND A 30 mg/kg) was 2.20. For the same compound, the “Tubular Atrophy” value ([2]; COMPOUND A 30 mg/kg) was 1.20, the Vasculitis ([2]; COMPOUND A 30 mg/kg) was 1.80 and the “Glomerular Cellularity” value ([2]; COMPOUND A 55 mg/kg) was 3.20. For the same compound, the “Glomerular Necrosis” value ([2]; COMPOUND A 55 mg/kg) was 1.80, the Glomerulosclerosis ([2]; COMPOUND A 55 mg/kg) was 2.00 and the “Interstitial Fibrosis” value ([2]; COMPOUND A 55 mg/kg) was 1.20. For the same compound, the “Interstitial Inflitration” value ([2]; COMPOUND A 55 mg/kg) was 2.00, the “Tubular Atrophy” value ([2]; COMPOUND A 55 mg/kg) was 2.20 and the Vasculitis ([2]; COMPOUND A 55 mg/kg) was 2.00. The “Glomerular Cellularity” value ([2]; COMPOUND A 100 mg/kg) was 2.40, the “Glomerular Necrosis” value ([2]; COMPOUND A 100 mg/kg) was 1.8 and the Glomerulosclerosis ([2]; COMPOUND A 100 mg/kg) was 2.20. For the same compound, the “Interstitial Fibrosis” value ([2]; COMPOUND A 100 mg/kg) was 1.40, the “Interstitial Inflitration” value ([2]; COMPOUND A 100 mg/kg) was 1.80 and the “Tubular Atrophy” value ([2]; COMPOUND A 100 mg/kg) was 1.40. For the same compound, the Vasculitis ([2]; COMPOUND A 100 mg/kg) was 1.40, the “interstitial infiltration decrease vs vehicle” value ([2]; MRL/lpr mice, 55 mg/kg, p<0.05) was 33.3% and the “glomerular cellularity decrease vs vehicle” value [2, 4] was 33.3%. The “interstitial infiltration decrease vs vehicle” value [2, 4] was 40%, the “vasculitis decrease vs vehicle” value [2, 4] was 46.1% and the “enlarged glomeruli and leukocytic infiltrations in renal sections” value ([2]; MRL/lpr mice, COMPOUND A treated animals at EOS, FIG. 8) was “absent”. The “cellular infiltrations/glomerulonephritis and glomerular size in H&E stained renal sections” value ([2]; MRL/lpr mice, compared to dexamethasone and vehicle groups, FIG. 8) was “decreases in both cellular infiltrations/glomerulonephritis and glomerular size”.
